From US8648066B2 (Exelixis, Inc., priority 2009, dated 2014)

Each compound was assayed against mTOR/GbL/Raptor (mTORC1) (Homo sapiens, UniProt P42345) (assay: mTOR/GbL/Raptor (mTORC1) ELISA assay). Settings: phosphorylation of 4E-BP1; 0.2 nM mTORC1, 10 μM ATP; read-out: IC50 in this assay (mTORC1 ELISA).
Format: biochemical
Summary of the method: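 ELISA read-out: phospho-4E-BP1 captured on Ni-chelate plates and detected with anti-phospho antibody plus HRP-anti-IgG luminescence. The kinase step ran 120 min at ambient temperature with 0.2 nM human mTORC1, 10 µM ATP, 50 nM His-4E-BP1, 10 mM MnCl2, pH 7.2 HEPES.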
An IC50 of no more than 10 nM was found for `CC1(C)CCc2ncnc(N3CCOc4ccc(-c5cnc(N)c(S(=O)(=O)NCC(O)C(F)(F)F)c5)cc4C3)c2C1` (stereo not shown) [Example 373, 2-amino-5-[4-(6,6-dimethyl-5,6,7,8-tetrahydroquinazolin-4-yl)-2,3,4,5-tetrahydro-1,4-benzoxazepin-7-yl]-N-(3,3,3-trifluoro-2-hydroxypropyl)pyridine-3-sulfonamide] in this work. An IC50 of 50 to 250 nM was found for `CC(C)(CO)CNS(=O)(=O)c1cc(-c2ccc3c(c2)CN(c2ncnc4c2CC(C)(C)CC4)CCO3)cnc1N` [Example 374, 2-amino-5-[4-(6,6-dimethyl-5,6,7,8-tetrahydroquinazolin-4-yl)-2,3,4,5-tetrahydro-1,4-benzoxazepin-7-yl]-N-(3-hydroxy-2,2-dimethylpropyl)pyridine-3-sulfonamide] in this work. An IC50 of no more than 10 nM was found for `CC1(C)CCc2ncnc(N3CCOc4ccc(-c5cnc(N)c(S(=O)(=O)NCCCO)c5)cc4C3)c2C1` [Example 375, 2-amino-5-[4-(6,6-dimethyl-5,6,7,8-tetrahydroquinazolin-4-yl)-2,3,4,5-tetrahydro-1,4-benzoxazepin-7-yl]-N-(3-hydroxypropyl)pyridine-3-sulfonamide] in this work. An IC50 of 10 to 50 nM was found for `CC1(C)CCc2ncnc(N3CCOc4ccc(-c5cnc(N)c(S(=O)(=O)NCC6CCCCN6)c5)cc4C3)c2C1` (stereo not shown) [Example 376, 2-amino-5-[4-(6,6-dimethyl-5,6,7,8-tetrahydroquinazolin-4-yl)-2,3,4,5-tetrahydro-1,4-benzoxazepin-7-yl]-N-(piperidin-2-ylmethyl)pyridine-3-sulfonamide] in this work. An IC50 of 50 to 250 nM was found for `CC1(C)CCc2ncnc(N3CCOc4ccc(-c5cnc(N)c(S(=O)(=O)NCC6CCCNC6)c5)cc4C3)c2C1` (stereo not shown) [Example 377, 2-amino-5-[4-(6,6-dimethyl-5,6,7,8-tetrahydroquinazolin-4-yl)-2,3,4,5-tetrahydro-1,4-benzoxazepin-7-yl]-N-(piperidin-3-ylmethyl)pyridine-3-sulfonamide] in this work. An IC50 of 50 to 250 nM was found for `CC1(C)CCc2ncnc(N3CCOc4ccc(-c5cnc(N)c(S(=O)(=O)NCC6CCNCC6)c5)cc4C3)c2C1` [Example 378, 2-amino-5-[4-(6,6-dimethyl-5,6,7,8-tetrahydroquinazolin-4-yl)-2,3,4,5-tetrahydro-1,4-benzoxazepin-7-yl]-N-(piperidin-4-ylmethyl)pyridine-3-sulfonamide] in this work. An IC50 of 50 to 250 nM was found for `CN(C)C(=O)c1cc(-c2ccc3c(c2)CN(c2ncnc4c2CC(C)(C)CC4)CCO3)cnc1N` [Example 379, 2-amino-5-[4-(6,6-dimethyl-5,6,7,8-tetrahydroquinazolin-4-yl)-2,3,4,5-tetrahydro-1,4-benzoxazepin-7-yl]-N,N-dimethylpyridine-3-carboxamide] in this work. An IC50 of 10 to 50 nM was found for `CN(C)S(=O)(=O)c1cc(-c2ccc3c(c2)CN(c2ncnc4c2CC(C)(C)CC4)CCO3)cnc1N` [Example 380, 2-amino-5-[4-(6,6-dimethyl-5,6,7,8-tetrahydroquinazolin-4-yl)-2,3,4,5-tetrahydro-1,4-benzoxazepin-7-yl]-N,N-dimethylpyridine-3-sulfonamide] in this work. An IC50 of 250 to 1000 nM was found for `CN1CCC(CNS(=O)(=O)c2cc(-c3ccc4c(c3)CN(c3ncnc5c3CC(C)(C)CC5)CCO4)cnc2N)CC1` [Example 381, 2-amino-5-[4-(6,6-dimethyl-5,6,7,8-tetrahydroquinazolin-4-yl)-2,3,4,5-tetrahydro-1,4-benzoxazepin-7-yl]-N-[(1-methylpiperidin-4-yl)methyl]pyridine-3-sulfonamide] in this work. An IC50 of 10 to 50 nM was found for `CC1(C)CCc2ncnc(N3CCOc4ccc(-c5cnc(N)c(S(=O)(=O)NC[C@H]6CCCN6)c5)cc4C3)c2C1` [Example 382, 2-amino-5-[4-(6,6-dimethyl-5,6,7,8-tetrahydrquinazolin-4-yl)-2,3,4,5-tetrahydro-1,4-benzoxazepin-7-yl]-N-[(2R)-pyrrolidin-2-ylmethyl]pyridine-3-sulfonamide] in this work. An IC50 of 50 to 250 nM was found for `CC1(C)CCc2ncnc(N3CCOc4ccc(-c5cnc(N)c(S(=O)(=O)NC[C@@H]6CCCN6)c5)cc4C3)c2C1` [Example 383, 2-amino-5-[4-(6,6-dimethyl-5,6,7,8-tetrahydroquinazolin-4-yl)-2,3,4,5-tetrahydro-1,4-benzoxazepin-7-yl]-N-[(2S)-pyrrolidin-2-ylmethyl]pyridine-3-sulfonamide] in this work. An IC50 of 50 to 250 nM was found for `CC1(C)CCc2ncnc(N3CCOc4ccc(-c5cnc(N)c(S(=O)(=O)NC[C@H]6C[C@H]7CNC[C@H]7C6)c5)cc4C3)c2C1` [Example 384, 2-amino-5-[4-(6,6-dimethyl-5,6,7,8-tetrahydroquinazolin-4-yl)-2,3,4,5-tetrahydro-1,4-benzoxazepin-7-yl]-N-[(3aR,5r,6aS)-octahydrocyclopenta[c]pyrrol-5-ylmethyl]pyridine-3-sulfonamide] in this work. An IC50 of 50 to 250 nM was found for `CN1CC[C@@H](NS(=O)(=O)c2cc(-c3ccc4c(c3)CN(c3ncnc5c3CC(C)(C)CC5)CCO4)cnc2N)C1` [Example 385, 2-amino-5-[4-(6,6-dimethyl-5,6,7,8-tetrahydroquinazolin-4-yl)-2,3,4,5-tetrahydro-1,4-benzoxazepin-7-yl]-N-[(3R)-1-methylpyrrolidin-3-yl]pyridine-3-sulfonamide] in this work. An IC50 of 250 to 1000 nM was found for `CC1(C)CCc2ncnc(N3CCOc4ccc(-c5cnc(N)c(S(=O)(=O)NC[C@@H]6CCCNC6)c5)cc4C3)c2C1` [Example 386, 2-amino-5-[4-(6,6-dimethyl-5,6,7,8-tetrahydroquinazolin-4-yl)-2,3,4,5-tetrahydro-1,4-benzoxazepin-7-yl]-N-[(3R)-piperidin-3-ylmethyl]pyridine-3-sulfonamide] in this work. An IC50 of no more than 10 nM was found for `CC1(C)CCc2ncnc(N3CCOc4ccc(-c5cnc(N)c(S(=O)(=O)N[C@@H]6CCNC6)c5)cc4C3)c2C1` [Example 387, 2-amino-5-[4-(6,6-dimethyl-5,6,7,8-tetrahydroquinazolin-4-yl)-2,3,4,5-tetrahydro-1,4-benzoxazepin-7-yl]-N-[(3R)-pyrrolidin-3-yl]pyridine-3-sulfonamide] in this work. An IC50 of 10 to 50 nM was found for `CC1(C)CCc2ncnc(N3CCOc4ccc(-c5cnc(N)c(S(=O)(=O)NC[C@@H]6CCNC6)c5)cc4C3)c2C1` [Example 388, 2-amino-5-[4-(6,6-dimethyl-5,6,7,8-tetrahydroquinazolin-4-yl)-2,3,4,5-tetrahydro-1,4-benzoxazepin-7-yl]-N-[(3R)-pyrrolidin-3-ylmethyl]pyridine-3-sulfonamide] in this work. An IC50 of 10 to 50 nM was found for `CC1(C)CCc2ncnc(N3CCOc4ccc(-c5cnc(N)c(S(=O)(=O)NC[C@H]6CCCNC6)c5)cc4C3)c2C1` [Example 389, 2-amino-5-[4-(6,6-dimethyl-5,6,7,8-tetrahydroquinazolin-4-yl)-2,3,4,5-tetrahydro-1,4-benzoxazepin-7-yl]-N-[(3S)-piperidin-3-ylmethyl]pyridine-3-sulfonamide] in this work. An IC50 of 10 to 50 nM was found for `CC1(C)CCc2ncnc(N3CCOc4ccc(-c5cnc(N)c(S(=O)(=O)N[C@H]6CCNC6)c5)cc4C3)c2C1` [Example 390] in this work. An IC50 of 10 to 50 nM was found for `CC1(C)CCc2ncnc(N3CCOc4ccc(-c5cnc(N)c(S(=O)(=O)NC[C@H]6CCNC6)c5)cc4C3)c2C1` [Example 391, 2-amino-5-[4-(6,6-dimethyl-5,6,7,8-tetrahydroquinazolin-4-yl)-2,3,4,5-tetrahydro-1,4-benzoxazepin-7-yl]-N-[(3S)-pyrrolidin-3-ylmethyl]pyridine-3-sulfonamide] in this work.
